According to patent US20040057926A1, “Modulation of the immune response through the manipulation of arginine levels” (LSU Medical Center, priority 2002, published 2004):

B1: IFN-γ: murine rIFN-γ (100 U/ml), Th1 cytokine used to stimulate PM (protein, UniProt P01580 23-155, looked up)
Interferon gamma: HGTVIESLESLNNYFNSSGIDVEEKSLFLDIWRNWQKDGDMKILQSQIISFYLRLFEVLKDNQAISNNISVIESHLITTFFSNSKAKKDAFMSIAKFEVNNPQVQRQAFNELIRVVHQLLPESSLRKRKRSRC

Assays:
[1] = tested on: peritoneal macrophages (PM); test: Extra-cellular L-Arg concentration in supernatants of peritoneal macrophages (HPLC); type: cell-based, mice; conditions: for extra-cellular L-Arg levels (mean of three experiments): L-Arg 2 mM, NOHA 100 μM, Nor-NOHA 50 μM
Procedure: Jurkat T-cells, a CD4^+ cell line (Clone E6-1) (ATCC, Manassas, Va.) and normal stimulated T-cells were used to test the effect of ASE I, ASE II and iNOS produced by PM on CD3ζ expression. Six-week old female C57BL/6 mice were used to isolate peritoneal macrophages (PM). Briefly, 3 ml of thioglycolate-brewer (Becton Dickinson, San Jose, Calif.) were injected into the peritoneal cavity of mice for 3 days. Mice were then sacrificed and PM isolated by washing the peritoneum with HBSS. After 2 days of culture in RPMI with 4% fetal bovine serum, unattached cells were washed off and attached cells were used in co-cultures with Jurkat or normal T-cells.
(§1) PM were cultured in 6 well plates in RPMI containing 150 μM L-Arg and stimulated with murine rIL-4 (50 U/ml) and murine rIL-13 (50 ng/ml), or murine rIFN-γ (100 U/ml) for 24 hours. Then 1×10^6 normal T-cells stimulated with anti-CD3 plus anti-CD28 or 1×10^6 Jurkat cells, were cultured in the top chamber of a transwell system having 0.4 μm pores (Falcon, Franklin lakes, N.J.). CD3ζ expression was measured in Jurkat cells or T lymphocytes at different time points. PM were detached using trypsin/EDTA and the expression of protein and RNA for CAT-2B, ASE I, ASE II and iNOS was tested by western blot and northern blot respectively. Cytoplasmic extracts from PM were used to test ASE activity. Supernatants from stimulated PM were used to measure NO production using the Griess reagent method (Molecular Probes, Eugene, Oreg.). In addition, the extra-cellular concentration of L-Arg was tested in supernatants by HPLC (Dr. Gu Yao Wu laboratory, University of Texas) as described previously. O'Quinn, P. R., D. A. Knabe, and G. Wu. 2002. Arginine catabolism in lactating porcine mammary tissue. J Anim Sci. 80:467-474.

Jurkat cells = test: Co-culture in transwells of stimulated PM and Jurkat cells, CD3ζ expression; type: cell-based
Procedure: as §1
Flow cytometry analysis was performed as previously described. Taheri, F., J. B. Ochoa, Z. Faghiri, K. Culotta, H. J. Park, M. S. Lan, A. H. Zea, and A. C. Ochoa. 2001. L-Arginine regulates the expression of the T-cell receptor zeta chain (CD3zeta) in Jurkat cells. Clin Cancer Res 7:958s-965s. Briefly, 5×10^5 Jurkat cells or T lymphocytes were washed once with Dulbecco phosphate-buffered saline 1× (D-PBS) and resuspended in 200 μL of D-PBS containing 1 μg of anti-CD3ε or isotype control. Cells were incubated for 15 min at 4° C., washed with D-PBS and resuspended in 200 μl D-PBS containing 500 μg/ml of digitonin plus 1 μg of anti-CD3ζ or 1 μg of isotypic control. Cells were incubated for 8 minutes after which they were washed and resuspended in 400 μl of D-PBS. Fluorescence acquisition and analysis were done using a Coulter-EPICS XL flow cytometer (Beckman-Coulter) with a 488 nm argon laser. The data were expressed as mean channel fluorescence intensity (MFI).

T lymphocytes = test: Co-culture in transwells of stimulated PM and stimulated normal T lymphocytes, CD3ζ expression; type: cell-based, human
Procedure: T-cells were isolated from mononuclear cells of healthy donors by T-cell enrichment columns (R&D Systems, Minneapolis, Minn.) according to manufacturer specifications. T-cell purity (CD3+) ranged between 89-95%. The cycle of internalization and re-expression of the TCR-CD3 complex was induced by T-cell stimulation with 1 μg/ml of anti-CD3, 100 ng/ml of anti-CD28 (Becton Dickinson) and 10 μg/ml of goat anti-mouse IgG (KPL, Gaithersburg, Md.). Cells were stimulated in the absence of L-Arg and added to the co-cultures 24 h after stimulation.
as §1
Flow cytometry analysis was performed as previously described. Taheri, F., J. B. Ochoa, Z. Faghiri, K. Culotta, H. J. Park, M. S. Lan, A. H. Zea, and A. C. Ochoa. 2001. […] Fluorescence acquisition and analysis were done using a Coulter-EPICS XL flow cytometer (Beckman-Coulter) with a 488 nm argon laser. The data were expressed as mean channel fluorescence intensity (MFI).

ASE = ASE activity assay (L-ornithine production) in PM lysates; type: biochemical, mice; conditions: NOHA 100 μM, Nor-NOHA 50 μM
Procedure: Cell lysates from PM stimulated with IL-4+IL-13 or IFN-γ were tested for ASE activity by measuring the production of L-ornithine. In brief, cell lysates from PM stimulated with IL-4+IL-13 or IFN-γ in the presence or absence of NOHA or Nor-NOHA were added to 50 μl of Tris-HCl (50 mM; pH 7.5) containing 10 mM MnCl2. This mixture was heated at 55-60° C. for 10 min to activate ASE. The hydrolysis reaction from L-Arg to L-ornithine was identified by a colorimetric assay after the addition of ninhydrin solution and incubation at 37° C. for 1 h.

ASE I = test: Western blot for ASE I in PM cytoplasmic extracts; type: cell-based, mice
Procedure: Cytoplasmic extracts from PM, Jurkat cells or T lymphocytes were prepared as previously reported. Taheri, F., J. B. Ochoa, Z. Faghiri, K. Culotta, H. J. Park, M. S. Lan, A. H. Zea, and A. C. Ochoa. 2001. L-Arginine regulates the expression of the T-cell receptor zeta chain (CD3zeta) in Jurkat cells. Clin Cancer Res 7:958s-965s. Briefly, cells were resuspended in lysis buffer (50 mM HEPES, 150 mM NaCl, 5 mM EDTA, 1 mM NaOV4 and 0.5% Triton) containing 50 μg/ml of aprotinin, 50 μg/ml of leupeptin, 100 μg/ml of trypsin-chymotrypsin inhibitor and 2 mM PMSF. Lysates were centrifuged at 3000×g for 10 min at 4° C. Cytoplasmic extracts from Jurkat or T-cells were immunoblotted for CD3ζ and CD3ε. The expression ASE I, ASE II and iNOS was detected by immunoblot using PM extracts. GAPDH was used as housekeeping protein. Cytoplasmic extracts were electrophoresed in 12 or 8% Tris-Glycine gels (Novex, San Diego, Calif.), transferred to PVDF membranes and immunoblotted with the appropriate antibodies. The reactions were detected using the ECL kit (Amersham-Pharmacia).

3LL lung carcinoma = test: Anti-tumor effect on 3LL lung carcinoma in C57Bl/6 mice; type: in vivo
Procedure: The anti-tumor effect of arginase inhibitor Nor-NOHA was also measured on these tumor cells. C57Bl/6 mice were injected with one million 3LL lung carcinoma cells on the flank. […] Control mice received normal saline solution. Tumors were measured and the tumor volume was calculated in cubic […]. […] Materials and methods for this example were similar to those described in the above examples.

CAT-2B = CAT-2B mRNA expression in PM (northern blot); type: cell-based, mice
Excerpt: Anti-CD3ε-FITC, anti-CD3ζ-PE (Beckman-Coulter, Miami, Fla.) were used for flow cytometry. Mouse IgG1-FITC and mouse IgG1-PE (Beckman-Coulter) were used as isotype controls. Monoclonal antibodies against CD3ζ (Santa Cruz Biotechnologies, Santa Cruz, Calif.), CD3ε (DAKO, Carpinteria, Calif.), iNOS (Santa Cruz Biotechnologies), ASE I (Transduction-Becton Dickinson) and ASE II (a kind gift of Dr. Sidney Morris Jr) were used for western blots. To test the expression of CAT transporters mRNA, specific amplification products from RT-PCR of CAT-1, CAT-2A, CAT-2B and CAT-3 were purified from agarose gels and used as probes to detect CAT expression by northern blot. Murine full-length cDNA for glyceraldehyde-3 phosphate dehydrogenase (GAPDH) (1.6 Kb) (Clontech, Palo Alto, Calif.) was used as housekeeping control.
Two million PM stimulated with IL-4+IL-13 or IFN-γ were used for RNA extraction using lysis with TRIzol (Invitrogen-Gibco) following the manufacturer's specifications. Four micrograms of total RNA from each sample were electrophoresed under denaturing conditions, blotted onto nytran membranes (Schleicher & Schuell Inc, Keene, N.H.) and cross-linked by UV irradiation. Membranes were pre-hybridized at 42° C. in ULTRAhyb buffer (Ambion, Austin, Tex.) and hybridized overnight with 1×10^6 cpm/mL of ^32P-labeled probe. […]

Row | Molecule | extra-cellular L-Arg levels (mean of three experiments) ([1]; Non-stimulated PM) [µM] | extra-cellular L-Arg levels (mean of three experiments) ([1]; PM stimulated with IL-4 + IL-13) [µM] | rapid decrease in the extra-cellular levels of L-Arg ([1]; PM stimulated with IL-4+IL-13) | CD3ζ in Jurkat cells co-cultured with PM stimulated with IL-4+IL-13 (Jurkat cells; NOHA 100 μM, Nor-NOHA 50 μM, L-Arg 2 mM, L-NIL 5 μg/ml, catalase 200 U/ml, L-NMMA, L-NNA, L-NAME 1 mM) | CD3ζ in normal stimulated T lymphocytes co-cultured with IL-4+IL-13 activated PM (T lymphocytes) | intracellular ASE activity (ASE) | ASE I up regulation after IL-4+IL-13 stimulation (ASE I; NOHA 100 μM, Nor-NOHA 50 μM) | tumor growth (tumor volume) (3LL lung carcinoma; 20 or 40 mgs/kg subcutaneously, contralateral flank) | tumor growth, comparison of doses (3LL lung carcinoma; 40 mgs/kg, the highest dose tested) | change of extra-cellular L-Arg by stimulated PM ([1]; similar to unstimulated PM) | expression of CD3ζ and CD3ε in Jurkat cells co-cultured with cytokine-stimulated PM (Jurkat cells; rIL-4 50 U/ml, rIL-13 50 ng/ml, rIFN-γ 100 U/ml) | CD3ζ in stimulated T-cells co-cultured with cytokine-stimulated PM (T lymphocytes; transwells) | ASE I expression in PM stimulated with cytokines (ASE I; 24 hours) | CAT-2B mRNA expression in stimulated PM (CAT-2B)
1 | N=C(NO)NCC[C@H](N)C(=O)O [Nor-NOHA, N(omega)-hydroxy-nor-l-arginine] | 109.8 | 73.8 | partially blocked the rapid decrease | prevented the decrease of CD3ζ | prevented the loss of CD3ζ | blocked intracellular ASE activity | did not prevent ASE I up regulation | significant arrest of tumor growth | most effective | – | – | – | – | –
2 | B1 | – | – | – | – | – | – | – | – | – | moderate decrease in L-Arg | did not alter CD3ζ or CD3ε expression | normal cycle of internalization and re-expression of CD3ζ within 48 hours | decrease ASE I expression | no increase in CAT-2B mRNA
